The values below are quoted from earlier work in patent publication US20080021079A1, “Compounds, Compositions, and Methods” (priority 2003, published 2008).

A word on the GI50: it is the concentration that inhibits growth by half.

For the series, the system named is A549 cells.

In the case of `O=c1[nH]cc(F)c(=O)[nH]1` [5-fluorouracil], the GI50 was 1000 nM. In the case of `COc1cccc2c1C(=O)c1c(O)c3c(c(O)c1C2=O)C[C@@](O)(C(=O)CO)C[C@@H]3O[C@H]1C[C@H](N)[C@H](O)[C@H](C)O1` [doxorubicin], the GI50 is 63 nM. Take `NC(=O)NO` [hydroxyurea]: the GI50 is 500000 nM. For the molecule `CC(=O)O[C@H]1C(=O)[C@@]2(C)[C@H]([C@H](OC(=O)c3ccccc3)[C@]3(O)C[C@H](OC(=O)[C@H](O)[C@@H](NC(=O)c4ccccc4)c4ccccc4)C(C)=C1C3(C)C)[C@]1(OC(C)=O)CO[C@@H]1C[C@@H]2O` [paclitaxel], the GI50 was 4 nM.
